Laboratory results taken from patent publication US9988680B2, “Non-natural nucleosides as theranostic agents” (Case Western Reserve University, priority 2011, dated 2018).

How the values were obtained:
[1] = molecular target: T1, terminal deoxynucleotidyl transferase (TdT) (Bos taurus, UniProt P06526); assay: Incorporation of natural and non-natural nucleotides by TdT (polymerization assay, Michaelis-Menten kinetics); type: biochemical
Description: All enzymatic assays were performed as previously described. […] Reactions were quenched with 200 Mm EDTA at variable times (5-600 s) and analyzed using denaturing gel electrophoresis. Time courses in product formation were fitted using eq 1: Y=mt+b(1) (1)
where y is the amount of product, m is the rate of the reaction, t is time, and b is the Y-intercept. Km and Vmax values were determined by fits of the data points to the Michaelis-Menten equation: […]
where Vmax is the maximal rate of nucleotide incorporation, Km is the Michaelis constant for dNTP, and [dNTP] is the concentration of nucleotide substrate. The IC50 value for 3-Eth-5-NITP was obtained using a nonlinear regression curve fit of the data to eq 3:
The biological function of TdT is to expand immunological diversity by randomly incorporating dNTPs into single-stranded DNA during V(D)J recombination. […] TdT also utilizes nucleotide analogues including 2′,3′-dideoxynucleotides, dinucleoside 5′,5′-tetraphosphates, and intrinsically fluorescent nucleotide analogues. In this report, we tested if TdT also incorporates indolyl-2′-deoxyribose-5′-triphosphates that bear non-natural moieties such as ethynyl and nitro groups at the 3- and 5-position, respectively, of the indole base. […] Aliquots of the reaction were quenched with EDTA at variable time points, and the polymerization reactions were then subjected to denaturing polyacrylamide gel electrophoresis to separate extended primers from unreacted substrate.
Time courses in product formation were generated using pseudo-first order reaction conditions in which 6 units of TdT were incubated with 1.5 μM DNA substrate and mixed with variable concentrations of non-natural nucleotide (0.05-50 μM). Each time course was fit to an equation for a straight line to define the rate of nucleotide incorporation (data not shown).

[2] = molecular target: T1, terminal deoxynucleotidyl transferase (TdT); assay: as above; type: biochemical; conditions: reaction times of up to 20 min

T1 sequence (P06526 whole entry): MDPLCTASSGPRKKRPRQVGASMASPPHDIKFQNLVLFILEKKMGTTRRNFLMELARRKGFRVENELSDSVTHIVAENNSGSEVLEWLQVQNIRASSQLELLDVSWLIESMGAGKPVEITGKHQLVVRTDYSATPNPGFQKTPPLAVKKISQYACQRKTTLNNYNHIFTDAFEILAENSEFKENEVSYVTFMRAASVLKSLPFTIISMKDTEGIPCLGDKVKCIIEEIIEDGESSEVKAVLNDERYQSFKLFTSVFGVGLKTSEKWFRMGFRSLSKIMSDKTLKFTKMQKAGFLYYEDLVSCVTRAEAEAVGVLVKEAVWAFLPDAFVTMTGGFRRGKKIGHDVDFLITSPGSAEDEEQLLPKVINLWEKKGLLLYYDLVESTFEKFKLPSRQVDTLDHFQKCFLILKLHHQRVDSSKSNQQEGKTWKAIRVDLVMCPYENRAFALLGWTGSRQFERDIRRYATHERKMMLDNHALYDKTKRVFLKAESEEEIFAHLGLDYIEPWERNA

- extension by TdT beyond the incorporated nucleotide ([1]; 100 μM nucleotide, 14-mer DNA, gel (FIG. 2B)): poorly extended
- Vmax ([1]; incorporation by TdT, 6 units TdT, 1.5 μM single-stranded DNA substrate): 3.2 ± 0.1 nM/s
- catalytic efficiency higher than that for 5-NITP ([1]; relative to 5-NITP): 7 fold
- decrease in Vmax ([1]; relative to 5-NITP): 3.5 fold
- extension by TdT beyond the incorporated nucleotide at longer reaction times [2]: not observed
SMILES: C#Cc1cn(C2CC(O)C(COP(=O)(O)OP(=O)(O)OP(=O)(O)O)O2)c2ccc([N+](=O)[O-])cc12 (stereo not drawn) [3-Eth-5-NITP, 3-ethynyl-5-nitroindolyl-2′-deoxyribose-5′-triphosphate]
- utilization by TdT (elongation of 14-mer DNA substrate) ([1]; 100 μM nucleotide, 6 units TdT, 1.5 μM 14-mer (FIG. 2B)): utilized by TdT as efficiently as the natural purines
